Measurements taken from patent US11992011B2, “Compounds for controlling plant pathogens” (VIB VZW, priority 2017, dated 2024).

How the values were obtained:
OsGH3.1 = assay: qRT-PCR in rice roots, OsGH3.1 (Example 20); format: in vivo, Oryza sativa; conditions: rice cv. Bomba root tissue; same samples as Example 19
Experimental: After quality control, qPCR was carried out.
To test whether other defense hormones might be involved, genes responsive to jasmonic acid (the biosynthesis gene OsAOS2) and auxin (the auxin conjugating enzyme OsGH3.1) were investigated. Moreover, the callose-degrading enzyme OsGNS5, downregulation of which is associated with basal defense, was also investigated. The qRT-PCR analysis was performed on the same samples used in the previous Example.

Meloidogyne incognita = Meloidogyne incognita infection in tomato cv. Moneymaker (Example 7); format: in vivo
Experimental: Tomato seeds, cv. Moneymaker (Vreeken's Zaden, Dordrecht, the Netherlands) were sown on autoclaved potting soil coveed with polyethylene film and placed at 24° C. for eight days. Seedlings were then transferred to individual SAP-filled pots and placed in a growth chamber at 24° C. Plants were watered three times per week with 25 ml of quarter-strength Hoagland solution for the first two weeks and half-strength thereafter.
M. incognita was extracted from infected tomato plants (cv. Moneymaker) roots grown in potting soil at 24° C. Nematodes were collected, counted and inoculated using the same procedure described for M. graminicola above.
Unless otherwise mentioned, all chemicals for nematode experiments were applied as a foliar spray consisting of the target compound at a concentration of 300 μM together with 0.1% (v/v) Tween 20 surfactant (Calbiochem) in distilled water. Again unless otherwise mentioned, all treatments for the nematode experiments were carried out three times: one and eight days before pathogen inoculation and seven days after pathogen inoculation. In all cases, plants were sprayed until run-off with an atomizer.
Infection experiments with M. incognita were performed in the same manner as those with M. graminicola, except that plants were harvested 31 days after inoculation instead of 14 days. At this point, the plants were phenotyped by measuring the root length with a ruler and in some experiments by measuring leaf area using the EasyLeafArea software (Easlon and Bloom, 2014) and by determining shoot dry mass after 72 hours of drying in an oven at 70° C. Galls were stained and counted as described above.
Additionally, a possible dose response effect was investigated by applying PA at three concentrations: 100, 400 and 700 μM.

[1] = test system: Alternaria solani, Botrytis cinerea R16, Fusarium graminearum PH1 and Fusarium graminearum GFP; format: cell-based
[2] = test system: Pseudomonas syringae (pv. DC3000); assay: Pseudomonas syringae infection experiment in tomato (Example 21); format: in vivo; conditions: PA foliar spray
Experimental: Tomato plants (Solanum lycopersicum cv. Moneymaker) were grown in potting soil as described in the plant materials section until the fourth leaf stage. Plants were treated with a piperonylic acid or control spray as described in the chemicals section. Twenty-four hours before inoculation, the tomato plants were placed in a sealed cloche to keep humidity at 100%.
A glycerol stock of P. syringae pv. DC3000 kept at−80° C. was spotted on petri dishes containing King's B agar amended with 75 μg/ml rifampicine (Duchefa Biochemie, Haarlem, the Netherlands). The plates were incubated in the dark at 28° C. for one week. At this time point, glass test tubes containing 5 ml of liquid King's B each (without rifampicin) were inoculated with cells from the plates and placed on an orbital shaker at 200 rpm for 24 hours at 28° C. 100 μl of this liquid inoculum was transferred to fresh glass test tubes containing 5 ml of liquid King's B each (without rifampicin), which were placed on an orbital shaker at 200 rpm for 24 hours at 28° C.
At this time point, the liquid culture was diluted with fresh King's B medium to an OD of 1.0. This medium was then centrifuged at 3000 rpm for ten minutes; the supernatant was discarded and the cells were resuspended in 10 mM MgSO4 to an OD of 0.20. To this inoculum, 0.01 v/v % Silwet 77 surfactant was added.
Whole tomato plants were inoculated by briefly dipping them in a beaker of the aforementioned inoculum. After dipping, plants were placed back in the sealed cloche for 12 hours. […]
Due to the difference in disease progression, two different scoring systems were used. In the first experiment, the number of lesions per plant was counted three days after inoculation and the percentage of leaf area covered by lesions was quantified using the ImageJ software after seven days. In the second experiment, each fully developed leaf was scored on a disease scale between 0 and 4 as follows: 0=no visible symptoms; 1=isolated lesions; 2=large lesions, covering <50% of leaf area; 3=lesions covering more than half of the leaf area; 4=leaf irreversibly shriveled or abscised. […]

[3] = test system: Fusarium oxysporum (isolate Foc26); assay: Onion seedling emergence with PA seed coating, Fusarium oxysporum (Example 12); format: in vivo; conditions: onion seeds with 300 μM PA coating vs mock coating
Experimental: Seed coatings were applied by dipping seeds in a coating solution containing 20 g/I high viscosity carboxymethylcellulose (Sigma-Aldrich, Saint Louis, USA) in distilled water as well as 300 μM of the target compound. Seeds were then dried overnight at room temperature.
Onion seeds were coated with a 300 μM PA solution as outlined in the chemical treatments section. F. oxysporum (isolate Foc26), F. solani (isolate Fso18) and F. proliferatum (isolate Fpr18) were originally extracted from Vietnamese onion fields. Inoculum was obtained as described in the fungal culture section. The inoculum was diluted to a concentration of 1.0×10^7 spores per ml with sterile PBS buffer. The coated seeds were then soaked in the spore solution for one hour. To avoid excessive PA leaching from the PA coating, 100 μM of PA was added to the spore solution.
After soaking in the PA solution, seeds were left to dry for thirty minutes. Twenty seeds were then sowed per pot in potting soil; three pots were used per treatment and per fungal isolate (for a total of 60 seeds per treatment-isolate combination). The pots were covered in cling film and left on a window sill at room temperature. After eight and ten days, the number of germinated seedlings per pot was counted.
Germination experiments were analyzed by fitting a three-parameter log-logistic model as implemented in the R drc package.

O=C(O)c1ccc2c(c1)OCO2 [PA, Piperonylic acid]
Fold change vs. control, OsGH3.1 expression (OsGH3.1): 1.21
negative effects on growth or development of the tomato plants (Meloidogyne incognita; 100, 400 and 700 μM foliar spray): no negative effects on growth or development
Percent difference of mean number of galls per root system, PA100 vs. PA400 (Meloidogyne incognita; tomato, 100 μM compared with 400 μM): −9%
Percent difference of mean number of galls per root system, PA100 vs. PA700 (Meloidogyne incognita; tomato, 100 μM compared with 700 μM): −2%
Percent difference of mean number of galls per root system, PA400 vs. PA700 (Meloidogyne incognita; tomato, 400 μM compared with 700 μM): +11%
Percent difference of mean number of galls per root system, PA100 vs. CON (Meloidogyne incognita; tomato, foliar spray 100 μM): −54%
Percent difference of mean number of galls per root system, PA400 vs. CON (Meloidogyne incognita; tomato, foliar spray 400 μM): −50%
Percent difference of mean number of galls per root system, PA700 vs. CON (Meloidogyne incognita; tomato, foliar spray 700 μM): −55%
germination of fungal spores on agar [1]: germinated normally
mycelium growth compared to control agar [1]: slight (species-specific) growth retardation
mean percentage of leaf area covered by lesions ([2]; first experiment, after seven days): reduced
change of total number of lesions per plant ([2]; first experiment, three days after inoculation, vs control): −25%
reduction of mean plant disease index ([2]; second experiment, scale 0 to 4): 20%
improvement of seedling emergence [3]: +42%
